Measured values published in PubChem BioAssay AID248 (DTP/NCI, 2004).
Where “and” joins values, the source holds several entries; their conditions need not be identical. Identical values can stand only once. Toxic doses and inconclusive results are not listed. Cut-off read from the data, not from the text of the source: active = T/C of 150% or more; inactive = T/C below 125%.

Test system: L1210 leukemia ip in BDF1 mice, survival T/C
Test: NCI In Vivo Anticancer Drug Screen. Data for tumor model L1210 Leukemia (intraperitoneal) in B6D2F1 (BDF1) mice
Details: endpoint: mean survival time, higher = longer survival
Summary of the method: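 Read-out is survival time, reported as the treated-group measurement over the vehicle-control measurement.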

[1] = dose: 100.0 mg/kg/injection, schedule: Q01DX009 (ip), vehicle: saline with Tween-80
[2] = dose: 200.0 mg/kg/injection, schedule: Q01DX009 (ip), vehicle: saline with Tween-80
[3] = dose: 100.0 mg/kg/injection, schedule: Q04DX003 (ip), vehicle: saline with Tween-80
[4] = dose: 200.0 mg/kg/injection, schedule: Q04DX003 (ip), vehicle: saline with Tween-80
[5] = dose: 400.0 mg/kg/injection, schedule: Q01DX009 (ip), vehicle: saline with Tween-80
[6] = dose: 400.0 mg/kg/injection, schedule: Q04DX003 (ip), vehicle: saline with Tween-80
[7] = dose: 100.0 mg/kg/injection, schedule: Q01DX001 (ip), vehicle: saline
[8] = dose: 200.0 mg/kg/injection, schedule: Q01DX001 (ip), vehicle: saline
[9] = dose: 400.0 mg/kg/injection, schedule: Q01DX001 (ip), vehicle: saline
[10] = dose: 100.0 mg/kg/injection, schedule: Q01DX001 (ip), vehicle: carboxymethylcellulose (CMC)
[11] = dose: 200.0 mg/kg/injection, schedule: Q01DX001 (ip), vehicle: carboxymethylcellulose (CMC)
[12] = dose: 400.0 mg/kg/injection, schedule: Q01DX001 (ip), vehicle: carboxymethylcellulose (CMC)
[13] = dose: 100.0 mg/kg/injection, schedule: Q01DX001 (ip), vehicle: saline with Tween-80
[14] = dose: 200.0 mg/kg/injection, schedule: Q01DX001 (ip), vehicle: saline with Tween-80
[15] = dose: 400.0 mg/kg/injection, schedule: Q01DX001 (ip), vehicle: saline with Tween-80
[16] = dose: 50.0 mg/kg/injection, schedule: Q01DX001 (ip), vehicle: saline
[17] = dose: 100.0 mg/kg/injection, schedule: Q01DX009 (ip), vehicle: saline
[18] = dose: 400.0 mg/kg/injection, schedule: Q01DX009 (ip), vehicle: saline
[19] = dose: 100.0 mg/kg/injection, schedule: Q04DX003 (ip), vehicle: Klucel (hydroxypropylcellulose) (HPC)
[20] = dose: 200.0 mg/kg/injection, schedule: Q04DX003 (ip), vehicle: Klucel (hydroxypropylcellulose) (HPC)
[21] = dose: 400.0 mg/kg/injection, schedule: Q04DX003 (ip), vehicle: Klucel (hydroxypropylcellulose) (HPC)

Measured: T/C

COCC=C(C)C
inactive: dose: 50.0 mg/kg/injection, schedule: Q01DX009 (ip), vehicle: saline with Tween-80 106 % of control | [1] 92 % of control | [2] 95 % of control

CCN/C(C)=C\C(=O)OCC
inactive: [1] 95 % of control | [3] 96 % of control | [2] 111 % of control | [4] 107 % of control | [5] 95 % of control | [6] 105 % of control

Cc1[nH]c(=O)[nH]c(=O)c1CCS
inactive: [7] 94 % of control | [8] 95 % of control | [9] 101 % of control

O=C(c1ccc(C(=O)N(C2CCCCC2)C2CCCCC2)cc1)N(C1CCCCC1)C1CCCCC1
inactive: dose: 5.0 mg/kg/injection, schedule: Q01DX001 (ip), vehicle: saline 105 % of control | dose: 10.0 mg/kg/injection, schedule: Q01DX001 (ip), vehicle: saline 109 % of control | dose: 20.0 mg/kg/injection, schedule: Q01DX001 (ip), vehicle: saline 103 % of control | dose: 40.0 mg/kg/injection, schedule: Q01DX001 (ip), vehicle: saline 101 % of control | dose: 80.0 mg/kg/injection, schedule: Q01DX001 (ip), vehicle: saline 100 % of control

CC(C)Cc1c(N)nc(=O)[nH]c1C(=O)O
inactive: dose: 75.0 mg/kg/injection, schedule: Q01DX009 (ip), vehicle: Klucel (hydroxypropylcellulose) (HPC) 95 % of control | dose: 100.0 mg/kg/injection, schedule: Q01DX001 (ip), vehicle: Klucel (hydroxypropylcellulose) (HPC) 96 % of control | dose: 150.0 mg/kg/injection, schedule: Q01DX009 (ip), vehicle: Klucel (hydroxypropylcellulose) (HPC) 98 % of control | dose: 200.0 mg/kg/injection, schedule: Q01DX001 (ip), vehicle: Klucel (hydroxypropylcellulose) (HPC) 100 % of control | dose: 300.0 mg/kg/injection, schedule: Q01DX009 (ip), vehicle: Klucel (hydroxypropylcellulose) (HPC) 101 % of control | dose: 400.0 mg/kg/injection, schedule: Q01DX001 (ip), vehicle: Klucel (hydroxypropylcellulose) (HPC) 100 % of control

NCCSc1cc(O)c2c(c1N)C(=O)c1ccccc1C2=O
inactive: dose: 50.0 mg/kg/injection, schedule: Q01DX001 (ip), vehicle: carboxymethylcellulose (CMC) 97 % of control | [10] 97 % of control | [11] 100 % of control | [12] 97 % of control

BrCc1cc(CBr)c(CBr)cc1CBr
inactive: dose: 12.5 mg/kg/injection, schedule: Q01DX009 (ip), vehicle: acetone 108 % of control | dose: 12.5 mg/kg/injection, schedule: Q04DX003 (ip), vehicle: saline 97 % of control | dose: 25.0 mg/kg/injection, schedule: Q04DX003 (ip), vehicle: saline 98 % of control and 114 % of control | dose: 50.0 mg/kg/injection, schedule: Q04DX003 (ip), vehicle: saline 95 % of control

O=C(Nc1ccn(C2OC(CO)C(O)C2O)c(=O)n1)c1ccccc1 (stereo not drawn)
inactive: [7] 97 % of control | [8] 97 % of control | [9] 86 % of control

N/N=C1\c2ccccc2-c2ccc([N+](=O)[O-])cc21
inactive: [10] 95 % of control | [11] 93 % of control | [12] 95 % of control

Cc1cc[n+]2cc3c(ccc4ccccc43)c(C)c2c1
inactive: dose: 2.0 mg/kg/injection, schedule: Q01DX015 (ip), vehicle: carboxymethylcellulose (CMC) 103 % of control | dose: 4.0 mg/kg/injection, schedule: Q01DX015 (ip), vehicle: carboxymethylcellulose (CMC) 124 % of control | dose: 8.0 mg/kg/injection, schedule: Q01DX015 (ip), vehicle: carboxymethylcellulose (CMC) 117 % of control | dose: 16.0 mg/kg/injection, schedule: Q01DX015 (ip), vehicle: carboxymethylcellulose (CMC) 98 % of control | dose: 25.0 mg/kg/injection, schedule: Q01DX001 (ip), vehicle: carboxymethylcellulose (CMC) 107 % of control

O=C(Nc1ccc(Cl)cc1[N+](=O)[O-])OCC1CC2C=CC1C2 (stereo not drawn)
inactive: [13] 94 % of control and 87 % of control | [1] 94 % of control and 98 % of control | dose: 100.0 mg/kg/injection, schedule: Q04DX002 (ip), vehicle: saline with Tween-80 96 % of control and 97 % of control | [3] 94 % of control and 98 % of control | [14] 93 % of control and 102 % of control | [2] 100 % of control | dose: 200.0 mg/kg/injection, schedule: Q04DX002 (ip), vehicle: saline with Tween-80 97 % of control and 100 % of control | [4] 98 % of control and 101 % of control | [15] 97 % of control and 101 % of control | [5] 100 % of control | dose: 400.0 mg/kg/injection, schedule: Q04DX002 (ip), vehicle: saline with Tween-80 93 % of control and 87 % of control | [6] 100 % of control and 91 % of control

CCN(CC)CCCNC(=S)NC(C)(C)CC(C)=O
inactive: dose: 50.0 mg/kg/injection, schedule: Q01DX009 (ip), vehicle: Klucel (hydroxypropylcellulose) (HPC) 89 % of control | dose: 100.0 mg/kg/injection, schedule: Q01DX009 (ip), vehicle: Klucel (hydroxypropylcellulose) (HPC) 105 % of control | dose: 100.0 mg/kg/injection, schedule: Q04DX003 (ip), vehicle: saline 97 % of control | dose: 200.0 mg/kg/injection, schedule: Q04DX003 (ip), vehicle: saline 101 % of control | dose: 400.0 mg/kg/injection, schedule: Q04DX003 (ip), vehicle: saline 100 % of control

C=C(C)CNC(=O)Oc1cccc(NC(=O)OC)c1
inactive: [13] 97 % of control | [14] 95 % of control | [15] 92 % of control

CNc1cc(Cl)ncn1
inactive: [16] 90 % of control | [7] 93 % of control | [8] 95 % of control

C=CCCCCCCCCC(=O)NN1CCOCC1
inactive: [3] 98 % of control | [4] 92 % of control | [6] 92 % of control

CCN(CC)c1ccc(Cc2ccc3c(c2O)C(=O)c2c(O)cccc2C3=O)cc1
inactive: [17] 94 % of control | dose: 100.0 mg/kg/injection, schedule: Q04DX002 (ip), vehicle: saline 101 % of control | dose: 200.0 mg/kg/injection, schedule: Q01DX009 (ip), vehicle: saline 96 % of control | dose: 200.0 mg/kg/injection, schedule: Q04DX002 (ip), vehicle: saline 92 % of control | [18] 97 % of control | dose: 400.0 mg/kg/injection, schedule: Q04DX002 (ip), vehicle: saline 89 % of control

[N-]=[N+]=NC(c1ccccc1)S(=O)c1ccccc1 (stereo not drawn)
inactive: dose: 100.0 mg/kg/injection, schedule: Q04DX002 (ip), vehicle: Klucel (hydroxypropylcellulose) (HPC) 90 % of control | dose: 200.0 mg/kg/injection, schedule: Q04DX002 (ip), vehicle: Klucel (hydroxypropylcellulose) (HPC) 108 % of control

CC(=O)Oc1ccc2c(c1)C(=O)CCC=C2
inactive: dose: 50.0 mg/kg/injection, schedule: Q01DX009 (ip), vehicle: other 92 % of control | dose: 200.0 mg/kg/injection, schedule: Q01DX009 (ip), vehicle: other 92 % of control

c1ccc(-c2cc(-c3ccncc3)c(-c3ccccc3)nn2)cc1
inactive: dose: 100.0 mg/kg/injection, schedule: Q04DX003 (ip), vehicle: gum acacia 102 % of control | dose: 200.0 mg/kg/injection, schedule: Q04DX003 (ip), vehicle: gum acacia 96 % of control | dose: 400.0 mg/kg/injection, schedule: Q04DX003 (ip), vehicle: gum acacia 96 % of control

O=C(CCCC(=O)N/N=C/c1cc(Br)ccc1O)N/N=C\c1cc(Br)ccc1O
inactive: [16] 93 % of control | [7] 98 % of control | [17] 89 % of control | [8] 98 % of control | [9] 96 % of control | [18] 92 % of control

CC(=O)C(CCC(=O)O)(CCC(=O)O)c1ccccc1
inactive: dose: 30.0 mg/kg/injection, schedule: Q01DX Z (ip), vehicle: other 100 % of control | dose: 60.0 mg/kg/injection, schedule: Q01DX Z (ip), vehicle: other 101 % of control | [19] 92 % of control | dose: 120.0 mg/kg/injection, schedule: Q01DX Z (ip), vehicle: other 95 % of control | [20] 97 % of control | dose: 240.0 mg/kg/injection, schedule: Q01DX Z (ip), vehicle: other 95 % of control | [21] 102 % of control

CN(C)c1ccc(/C=C/c2nc3ccc(Cl)cc3[nH]2)cc1
inactive: [19] 96 % of control | [20] 103 % of control | [21] 96 % of control

Nc1ccc2cc3ccc(N)cc3nc2c1
inactive: [16] 120 % of control
